Data on one compound can be found in article PMC3856890 (Nature methods, 2013).

For the assay, the target named is T1, Pdp (pyrimidine-nucleoside phosphorylase) (Mycoplasmoides genitalium, UniProt P47297).
T1 sequence (P47297 1-421): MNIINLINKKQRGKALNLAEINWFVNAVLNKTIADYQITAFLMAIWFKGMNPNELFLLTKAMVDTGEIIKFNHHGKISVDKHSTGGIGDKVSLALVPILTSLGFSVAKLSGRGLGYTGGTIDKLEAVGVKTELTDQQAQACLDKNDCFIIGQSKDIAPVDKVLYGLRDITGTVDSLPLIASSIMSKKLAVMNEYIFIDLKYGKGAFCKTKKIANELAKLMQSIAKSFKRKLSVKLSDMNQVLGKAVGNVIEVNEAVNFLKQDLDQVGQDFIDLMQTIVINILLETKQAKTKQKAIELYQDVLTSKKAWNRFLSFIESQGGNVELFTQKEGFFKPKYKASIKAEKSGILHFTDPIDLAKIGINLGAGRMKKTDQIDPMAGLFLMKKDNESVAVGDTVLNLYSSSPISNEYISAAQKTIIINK
The assay is described as follows: uracil production at […] nm after NaOH stop. It is filed as biochemical. Conditions: 1.25-12.5 mM deoxyuridine; 10 mM phosphate; 10 mM Tris pH 7.3; 1 mM EDTA; 37 C.

Molecules are shown by their SMILES.

Turning to `O=c1cc[nH]c(=O)[nH]1` [uracil], the “uracil production at 290 nm after NaOH stop” value is “We determined uracil production by A290”.
